Biological target: T1, HrcN (Δ1-18 WT HrcN) (Pseudomonas syringae group genomosp. 3, UniProt Q887B5)
T1 construct: gene sctN; N-terminal residues 1-18 removed, His6-tagged (tag not reported cut), pETM11, expressed in E. coli BL21(DE3) pLysS, HisTrap purified
Format: binding
Details: 1 mM unlabelled competitor, 1.25 µM HrcN, 0.6 µM 2'-Fluo-AHC-c-diGMP; pH 7.5, 10 mM MgCl2

## Nc1nc2c(ncn2[C@@H]2O[C@@H]3COP(=O)(O)O[C@H]4[C@@H](O)[C@H](n5cnc6c(=O)[nH]c(N)nc65)O[C@@H]4COP(=O)(O)O[C@H]3[C@H]2O)c(=O)[nH]1 [cyclic-di-GMP]
  competition DRaCALA against fluorescent c-di-GMP: fluorescent cdG binding could be disrupted by the addition of unlabelled cdG

From article PMC12774368, “Cyclic-di-GMP controls Type III effector export and symptom development in Pseudomonas syringae infections via the export ATPase HrcN” (PLOS Pathogens, 2025)
